Measurements from ChEMBL document CHEMBL1158255, “New polyoxypregnane ester derivatives from Leptadenia hastata” (1996).

Tests used:
Type in all cases: functional
Raji [1] = experiment: Antitumor activity against human Raji cells assessed as DNA synthesis at 0.1 ug/mL by [3H]thymidine incorporation assay relative to control
Raji [2] = experiment: Antitumor activity against human Raji cells assessed as DNA synthesis at 0.5 ug/mL by [3H]thymidine incorporation assay relative to control
Raji [3] = experiment: Antitumor activity against human Raji cells assessed as DNA synthesis at 1 ug/mL by [3H]thymidine incorporation assay relative to control
Raji [4] = experiment: Cell cycle arrest in human Raji cells assessed as accumulation in S phase at 0.1 ug/mL
Raji [5] = experiment: Cell cycle arrest in human Raji cells assessed as accumulation in S phase at 0.5 ug/mL
Raji [6] = experiment: Cell cycle arrest in human Raji cells assessed as accumulation in S phase at 1 ug/mL

SMILES: CO[C@H]1[C@@H](O)[C@H](O[C@H]2[C@@H](OC)C[C@H](O[C@H]3[C@@H](OC)C[C@H](O[C@H]4[C@@H](OC)C[C@H](O[C@H]5CC[C@@]6(C)C(=CC[C@]7(O)[C@@H]6C[C@@H](OC(=O)/C=C/c6ccccc6)[C@@]6(C)[C@]7(O)CC[C@@]6(O)C(C)=O)C5)O[C@@H]4C)O[C@@H]3C)O[C@@H]2C)O[C@H](C)[C@H]1O[C@@H]1O[C@H](CO)[C@@H](O)[C@H](O)[C@H]1O
- Activity (Raji [1]): 41%
- Activity (Raji [2]): 21%
- Activity (Raji [3]): 14%
- Activity (Raji [4]): 22%
- Activity (Raji [5]): 11%
- Activity (Raji [6]): 4%

SMILES: COC1C[C@H](O[C@H]2[C@@H](OC)C[C@H](O[C@H]3[C@@H](OC)C[C@H](O[C@H]4CC[C@@]5(C)C(=CC[C@]6(O)[C@@H]5C[C@@H](OC(C)=O)[C@@]5(C)[C@]6(O)CC[C@@]5(O)C(C)=O)C4)O[C@@H]3C)O[C@@H]2C)O[C@H](C)[C@H]1O[C@@H]1O[C@H](C)[C@@H](O[C@@H]2O[C@H](CO)[C@@H](O)[C@H](O)[C@H]2O)[C@@H](OC)[C@H]1O (single isomer, unassigned)
- Activity (Raji [1]): 98%
- Activity (Raji [2]): 87%
- Activity (Raji [3]): 69%
- Activity (Raji [4]): 30%
- Activity (Raji [5]): 28%
- Activity (Raji [6]): 26%

SMILES: CO[C@H]1[C@@H](O)[C@H](O[C@H]2[C@@H](OC)C[C@H](O[C@H]3[C@@H](OC)C[C@H](O[C@H]4[C@@H](OC)C[C@H](O[C@H]5CC[C@@]6(C)C(=CC[C@]7(O)[C@@H]6C[C@@H](OC(=O)c6ccccc6)[C@@]6(C)[C@]7(O)CC[C@@]6(O)[C@H](C)OC(=O)/C=C/c6ccccc6)C5)O[C@@H]4C)O[C@@H]3C)O[C@@H]2C)O[C@H](C)[C@H]1O[C@@H]1O[C@H](CO)[C@@H](O)[C@H](O)[C@H]1O
- Activity (Raji [1]): 15%
- Activity (Raji [2]): 14%
- Activity (Raji [3]): 14%
- Activity (Raji [4]): 4%
- Activity (Raji [5]): 6%
- Activity (Raji [6]): 4%

SMILES: COC1C[C@H](O[C@@H]2[C@@H](C)O[C@@H](O[C@H]3[C@@H](OC)C[C@H](O[C@H]4CC[C@@]5(C)C(=CC[C@]6(O)[C@@H]5C[C@@H](OC(=O)/C=C/c5ccccc5)[C@@]5(C)[C@]6(O)CC[C@@]5(O)[C@H](C)OC(=O)c5ccccc5)C4)O[C@@H]3C)C[C@H]2OC)O[C@H](C)[C@H]1O[C@@H]1O[C@H](C)[C@@H](O[C@@H]2O[C@H](CO)[C@@H](O)[C@H](O)[C@H]2O)[C@@H](OC)[C@H]1O (single isomer, unassigned)
- Activity (Raji [1]): 16%
- Activity (Raji [2]): 16%
- Activity (Raji [3]): 15%
- Activity (Raji [4]): 6%
- Activity (Raji [5]): 5%
- Activity (Raji [6]): 3%

SMILES: COC1C[C@H](O[C@H]2[C@@H](OC)C[C@H](O[C@H]3[C@@H](OC)C[C@H](O[C@H]4CC[C@@]5(C)C(=CC[C@]6(O)[C@@H]5C[C@@H](OC(C)=O)[C@@]5(C)[C@]6(O)CC[C@@]5(O)[C@H](C)O)C4)O[C@@H]3C)O[C@@H]2C)O[C@H](C)[C@H]1O[C@@H]1O[C@H](C)[C@@H](O[C@@H]2O[C@H](CO)[C@@H](O)[C@H](O)[C@H]2O)[C@@H](OC)[C@H]1O (single isomer, unassigned)
- Activity (Raji [1]): 98%
- Activity (Raji [2]): 83%
- Activity (Raji [3]): 69%
- Activity (Raji [4]): 32%
- Activity (Raji [5]): 30%
- Activity (Raji [6]): 28%

SMILES: COC1C[C@H](O[C@H]2[C@@H](OC)C[C@H](O[C@H]3[C@@H](OC)C[C@H](O[C@H]4CC[C@@]5(C)C(=CC[C@]6(O)[C@@H]5C[C@@H](OC(=O)/C=C/c5ccccc5)[C@@]5(C)[C@]6(O)CC[C@@]5(O)[C@H](C)O)C4)O[C@@H]3C)O[C@@H]2C)O[C@H](C)[C@H]1O[C@@H]1O[C@H](C)[C@@H](O[C@@H]2O[C@H](CO)[C@@H](O)[C@H](O)[C@H]2O)[C@@H](OC)[C@H]1O (single isomer, unassigned)
- Activity (Raji [1]): 59%
- Activity (Raji [2]): 33%
- Activity (Raji [3]): 16%
- Activity (Raji [4]): 33%
- Activity (Raji [5]): 18%
- Activity (Raji [6]): 10%

SMILES: CO[C@@H]1[C@@H](O)[C@H](O[C@H]2[C@@H](OC)C[C@H](O[C@H]3[C@@H](OC)C[C@H](O[C@H]4[C@@H](OC)C[C@H](O[C@H]5CC[C@@]6(C)C(=CC[C@]7(O)[C@@H]6C[C@@H](OC(=O)c6ccccc6)[C@@]6(C)[C@]7(O)CC[C@@]6(O)[C@H](C)OC(=O)/C=C/c6ccccc6)C5)O[C@@H]4C)O[C@@H]3C)O[C@@H]2C)O[C@H](C)[C@H]1O[C@@H]1O[C@H](CO)[C@@H](O)[C@H](O)[C@H]1O
- Activity (Raji [1]): 13%
- Activity (Raji [2]): 14%
- Activity (Raji [3]): 16%
- Activity (Raji [4]): 5%
- Activity (Raji [5]): 4%
- Activity (Raji [6]): 5%

SMILES: COC1C[C@H](O[C@@H]2[C@@H](C)O[C@@H](O[C@H]3[C@@H](OC)C[C@H](O[C@H]4CC[C@@]5(C)C(=CC[C@]6(O)[C@@H]5C[C@@H](OC(C)=O)[C@@]5(C)[C@]6(O)CC[C@@]5(O)[C@H](C)O)C4)O[C@@H]3C)C[C@H]2OC)O[C@H](C)[C@H]1O[C@@H]1O[C@H](C)[C@@H](O[C@@H]2O[C@H](CO)[C@@H](O)[C@H](O)[C@H]2O)[C@@H](OC)[C@H]1O (single isomer, unassigned)
- Activity (Raji [1]): 98%
- Activity (Raji [2]): 89%
- Activity (Raji [3]): 65%
- Activity (Raji [4]): 34%
- Activity (Raji [5]): 30%
- Activity (Raji [6]): 18%
